In patent US10870638B2, “Pyridazinone compound or its salt, and herbicide containing it” (ISHIHARA SANGYO KAISHA, LTD., priority 2016, dated 2020):

Columns and labels:
Test in all cases: Test Example 1: foliar treatment, growth inhibition rate on 14th day
Type in all cases: in vivo
Details in all cases: active ingredient amount 31 g/ha, 14th day after application
[1] = tested on: italian ryegrass (Lolium multiflorum Lam.)
Excerpt: (§1) Upland field soil was put into a 1/300,000 hectare pot, and seeds of various plants were sown. When the respective plants reached predetermined leaf stage ((1) barnyardgrass (Echinochloa crus-[…].): 0.5 to 2.9 leaf stage, (2) crabgrass (Digitaria sanquinalis L.): 0.5 to 3.0 leaf stage, (3) green foxtail (Setaria viridis L.): 0.5 to 3.2 leaf stage, (4) wild oat (Avena fatua L.): 0.4 to 1.2 leaf stage, (5) italian ryegrass (Lolium multiflorum Lam.): 0.4 to 2.0 leaf stage, (6) redroot pigweed (Amaranthus retroflexus L.): cotyledon stage to 2.2 leaf stage, (7) rice (Oryza sativa L.): 0.2 to 2.7 leaf stage, (8) corn (Zea mays L.): 1.7 to 3.6 leaf stage, (9) wheat (Triticum aestivum L.): 1.3 to 2.3 leaf stage, (10) soybean (Glycine max Merr.); primary leaf stage), wettable powders or emulsifiable concentrates of the compounds of the present invention prepared in accordance with a conventional preparation method, were weighed so as to achieve the prescribed active ingredient amounts, and diluted with water in an amount corresponding to 1,000 liters per 1 hectare (containing 0.1 vol % of an agricultural spreader (surfactant WK manufactured by MARUWA BIOCHEMICAL Co., Ltd.)), and the spray solutions thus prepared were applied for foliar treatment by a small sprayer. On the 14th day after the application, the state of growth of the respective plants was visually observed, and the herbicidal effect was evaluated by a growth inhibition rate (%) of 0 (equivalent to the non-treated area) to 100 (complete kill).

[2] = tested on: barnyardgrass (Echinochloa crus-qalli L.)
Excerpt: as §1

[3] = tested on: rice (Oryza sativa L.)
Excerpt: as §1

[4] = tested on: soybean (Glycine max Merr.)
Excerpt: as §1

[5] = tested on: green foxtail (Setaria viridis L.)
Excerpt: as §1

[6] = tested on: crabgrass (Digitaria sanquinalis L.)
Excerpt: as §1

[7] = tested on: redroot pigweed (Amaranthus retroflexus L.)
Excerpt: as §1

[8] = tested on: corn (Zea mays L.)
Excerpt: as §1

[9] = tested on: wheat (Triticum aestivum L.)
Excerpt: as §1

[10] = tested on: wild oat (Avena fatua L.)
Excerpt: as §1

[11] = visual, 0 = non-treated, 100 = complete kill

In the case of CC(=O)Oc1c(C)nn(C)c(=O)c1-c1cc(Oc2ncc(C(F)(F)F)cc2Br)ccc1C [Compound 2-115], the “Growth inhibition rate (%) Italian ryegrass” value [1] is reported as 98%, the “Growth inhibition rate (%) Barnyardgrass” value [2] is reported as 100% and the “Growth inhibition rate (%) Rice” value [3] is reported as 78%. For the same molecule, the “Growth inhibition rate (%) Soybean” value [4] was 0%, the “Growth inhibition rate (%) Green foxtail” value [5] was 98% and the “Growth inhibition rate (%) Crabgrass” value [6] was 95%. The “Growth inhibition rate (%) Redroot pigweed” value [7] was 20%, the “Growth inhibition rate (%) Corn” value [8] was 98% and the “Growth inhibition rate (%) Wheat” value [9] was 83%. For the same molecule, the “Growth inhibition rate (%) Wild oat” value [10] was 100%.
In the case of CCOC(=O)Oc1c(C)nn(C)c(=O)c1-c1cc(Oc2cnc3cc(Cl)ccc3n2)ccc1C [Compound 3-35], the “Growth inhibition rate (%) Italian ryegrass” value [1] is reported as 99%, the “Growth inhibition rate (%) Barnyardgrass” value [2] is reported as 100% and the “Growth inhibition rate (%) Rice” value [3] is reported as 95%. The “Growth inhibition rate (%) Soybean” value [4] was 25%, the “Growth inhibition rate (%) Green foxtail” value [5] was 99% and the “Growth inhibition rate (%) Crabgrass” value [6] was 99%. For the same molecule, the “Growth inhibition rate (%) Redroot pigweed” value [7] was 10%, the “Growth inhibition rate (%) Corn” value [8] was 60% and the “Growth inhibition rate (%) Wheat” value [9] was 100%. The “Growth inhibition rate (%) Wild oat” value [10] was 100%.
For CC(=O)Oc1c(C)nn(C)c(=O)c1-c1cc(Oc2ccc(C(F)(F)F)cc2Cl)ccc1C [Compound 2-114], the “Growth inhibition rate (%) Italian ryegrass” value [1] was 80%, the “Growth inhibition rate (%) Barnyardgrass” value [2] was 98% and the “Growth inhibition rate (%) Rice” value [3] was 10%. For the same molecule, the “Growth inhibition rate (%) Soybean” value [4] was 0%, the “Growth inhibition rate (%) Green foxtail” value [5] was 80% and the “Growth inhibition rate (%) Crabgrass” value [6] was 10%. The “Growth inhibition rate (%) Redroot pigweed” value [7] was 0%, the “Growth inhibition rate (%) Corn” value [8] was 75% and the “Growth inhibition rate (%) Wheat” value [9] was 25%. The “Growth inhibition rate (%) Wild oat” value [10] was 83%.
In the case of Cc1ccc(Oc2cnc3cc(Cl)ccc3n2)cc1-c1c(OC(=O)N(C)C)c(C)nn(C)c1=O [Compound 3-65], the “Growth inhibition rate (%) Italian ryegrass” value [1, 11] is reported as 85%, the “Growth inhibition rate (%) Barnyardgrass” value [2, 11] is reported as 100% and the “Growth inhibition rate (%) Rice” value [3, 11] is reported as 0%. For the same molecule, the “Growth inhibition rate (%) Soybean” value [4, 11] was 10%, the “Growth inhibition rate (%) Green foxtail” value [5, 11] was 99% and the “Growth inhibition rate (%) Crabgrass” value [6, 11] was 83%. The “Growth inhibition rate (%) Redroot pigweed” value [7, 11] was 0%, the “Growth inhibition rate (%) Corn” value [8, 11] was 40% and the “Growth inhibition rate (%) Wheat” value [9, 11] was 98%. For the same molecule, the “Growth inhibition rate (%) Wild oat” value [10, 11] was 75%.
With CCCSC(=O)Oc1c(C)nn(C)c(=O)c1-c1cc(Oc2cnc3cc(Cl)ccc3n2)ccc1C [Compound 3-56] the “Growth inhibition rate (%) Italian ryegrass” value [1, 11] was 98%, the “Growth inhibition rate (%) Barnyardgrass” value [2, 11] was 98% and the “Growth inhibition rate (%) Rice” value [3, 11] was 0%. For the same molecule, the “Growth inhibition rate (%) Soybean” value [4, 11] was 30%, the “Growth inhibition rate (%) Green foxtail” value [5, 11] was 100% and the “Growth inhibition rate (%) Crabgrass” value [6, 11] was 99%. The “Growth inhibition rate (%) Redroot pigweed” value [7, 11] was 0%, the “Growth inhibition rate (%) Corn” value [8, 11] was 40% and the “Growth inhibition rate (%) Wheat” value [9, 11] was 93%. The “Growth inhibition rate (%) Wild oat” value [10, 11] was 99%.
For Cc1ccc(Oc2cnc3cc(Cl)ccc3n2)cc1-c1c(OCC#N)c(C)nn(C)c1=O [Compound 3-78], the “Growth inhibition rate (%) Italian ryegrass” value [1, 11] was 10%, the “Growth inhibition rate (%) Barnyardgrass” value [2, 11] was 99% and the “Growth inhibition rate (%) Rice” value [3, 11] was 0%. For the same molecule, the “Growth inhibition rate (%) Soybean” value [4, 11] was 0%, the “Growth inhibition rate (%) Green foxtail” value [5, 11] was 98% and the “Growth inhibition rate (%) Crabgrass” value [6, 11] was 93%. The “Growth inhibition rate (%) Redroot pigweed” value [7, 11] was 0%, the “Growth inhibition rate (%) Corn” value [8, 11] was 0% and the “Growth inhibition rate (%) Wheat” value [9, 11] was 0%. The “Growth inhibition rate (%) Wild oat” value [10, 11] was 40%.
In the case of Cc1ccc(Oc2cnc3cc(Cl)ccc3n2)cc1-c1c(OC(=O)OC2CC(C)CCC2C(C)C)c(C)nn(C)c1=O (centres unmarked) [Compound 3-61], the “Growth inhibition rate (%) Italian ryegrass” value [1, 11] is reported as 0%, the “Growth inhibition rate (%) Barnyardgrass” value [2, 11] is reported as 0% and the “Growth inhibition rate (%) Rice” value [3, 11] is reported as 0%. For the same molecule, the “Growth inhibition rate (%) Soybean” value [4, 11] was 0%, the “Growth inhibition rate (%) Green foxtail” value [5, 11] was 60% and the “Growth inhibition rate (%) Crabgrass” value [6, 11] was 20%. For the same molecule, the “Growth inhibition rate (%) Redroot pigweed” value [7, 11] was 0%, the “Growth inhibition rate (%) Corn” value [8, 11] was 20% and the “Growth inhibition rate (%) Wheat” value [9, 11] was 0%. For the same molecule, the “Growth inhibition rate (%) Wild oat” value [10, 11] was 0%.
Cc1ccc(Oc2ncc(C(F)(F)F)cc2Cl)cc1-c1c(OC(=O)c2nn(C)cc2C)c(C)nn(C)c1=O [1-136] was tested, and the “Growth inhibition rate (%) Italian ryegrass” value [1] was 98%, the “Growth inhibition rate (%) Barnyardgrass” value [2] was 100% and the “Growth inhibition rate (%) Rice” value [3] was 25%. For the same molecule, the “Growth inhibition rate (%) Soybean” value [4] was 0%, the “Growth inhibition rate (%) Green foxtail” value [5] was 100% and the “Growth inhibition rate (%) Crabgrass” value [6] was 98%. For the same molecule, the “Growth inhibition rate (%) Redroot pigweed” value [7] was 0%, the “Growth inhibition rate (%) Corn” value [8] was 99% and the “Growth inhibition rate (%) Wheat” value [9] was 90%. The “Growth inhibition rate (%) Wild oat” value [10] was 98%.
